Laboratory results: ChEMBL document CHEMBL3885861, “Open TG-GATES”

Species: Rattus norvegicus
Test: Open TG-GATES - Regimen: Daily Repeat
Assay type: toxicity, organism-based, Sprague-Dawley
Design: regimen Daily Repeat, gender Male, age 6 weeks
Settings: in vivo, po, 100 mg/kg, route gavage, dose level High; for APTT / Bas / Eos / Fbg / Hb / Ht / Lym / MCH / MCHC / MCV / Mono / Neu / PT / Plat / RBC / Ret / WBC: tissue Blood; for KIDNEY_L / KIDNEY_R / KIDNEY_TOTAL: tissue Kidney; for LIVER: tissue Liver; for A/G / ALP / ALT / AST / BUN / CRE / Ca / Cl / DBIL / GLC / IP / K / LDH / Na / PL / RALB / TBIL / TC / TG / TP / gamma-GTP: tissue Plasma

## CCC1(c2ccccc2)C(=O)NC(=O)NC1=O [PHENOBARBITAL]
72 h, time 3 day
  TERMINAL_BW: 223.9 g
  APTT: 15.7 s
  Bas: 0%
  Eos: 0.4%
  Fbg: 214.6 mg/dL
  Hb: 13.6 g/dL
  Ht: 40.7%
  Lym: 82.8%
  MCH: 21.9 pg
  MCHC: 33.3%
  MCV: 65.9 fL
  Mono: 6.8%
  Neu: 10%
  PT: 11.4 s
  Plat: 115.9 x10_4/uL
  RBC: 617.6 x10_4/ul
  Ret: 6.6%
  WBC: 159.6 x10_2/uL
  KIDNEY_L: 1 g
  KIDNEY_R: 1 g
  KIDNEY_TOTAL: 2 g
  LIVER: 14.1 g
  A/G: 1.6
  ALP: 945.6 IU/L
  ALT: 37 IU/L
  AST: 60.6 IU/L
  BUN: 14.2 mg/dL
  CRE: 0.5 mg/dL
  Ca: 10.8 mg/dL
  Cl: 104.6 meq/L
  DBIL: 0.028 mg/dL
  GLC: 188.6 mg/dL
  IP: 8 mg/dL
  K: 5.1 meq/L
  LDH: 112.4 IU/L
  Na: 137.4 meq/L
  PL: 157.2 mg/dL
  RALB: 3.6 g/dL
  TBIL: 0.4 mg/dL
  TC: 82.2 mg/dL
  TG: 118.6 mg/dL
  TP: 5.9 g/dL
  gamma-GTP: 1 IU/L
[…], time 7 day
  TERMINAL_BW: 257.9 g
  APTT: 16.7 s
  Bas: 0%
  Eos: 1%
  Fbg: 241.6 mg/dL
  Hb: 13.8 g/dL
  Ht: 41.4%
  Lym: 78.8%
  MCH: 22 pg
  MCHC: 33.4%
  MCV: 66 fL
  Mono: 7.4%
  Neu: 13%
  PT: 11.5 s
  Plat: 116.8 x10_4/uL
  RBC: 629.6 x10_4/ul
  Ret: 7.5%
  WBC: 104.3 x10_2/uL
  KIDNEY_L: 1.1 g
  KIDNEY_R: 1.1 g
  KIDNEY_TOTAL: 2.1 g
  LIVER: 17.1 g
  A/G: 1.5
  ALP: 717.2 IU/L
  ALT: 32.6 IU/L
  AST: 58.8 IU/L
  BUN: 18 mg/dL
  CRE: 0.6 mg/dL
  Ca: 11 mg/dL
  Cl: 106 meq/L
  DBIL: 0.054 mg/dL
  GLC: 199 mg/dL
  IP: 8.1 mg/dL
  K: 4.6 meq/L
  LDH: 145 IU/L
  Na: 140.4 meq/L
  PL: 160.2 mg/dL
  RALB: 3.8 g/dL
  TBIL: 0.4 mg/dL
  TC: 88.4 mg/dL
  TG: 71.6 mg/dL
  TP: 6.2 g/dL
  gamma-GTP: 1.6 IU/L
[…], time 14 day
  TERMINAL_BW: 304.3 g
  APTT: 17.5 s
  Bas: 0%
  Eos: 0%
  Fbg: 228.6 mg/dL
  Hb: 14.7 g/dL
  Ht: 43.9%
  Lym: 86%
  MCH: 20.7 pg
  MCHC: 33.4%
  MCV: 61.9 fL
  Mono: 4.2%
  Neu: 9.4%
  PT: 11.5 s
  Plat: 115.5 x10_4/uL
  RBC: 709.4 x10_4/ul
  Ret: 5%
  WBC: 166 x10_2/uL
  KIDNEY_L: 1.2 g
  KIDNEY_R: 1.2 g
  KIDNEY_TOTAL: 2.4 g
  LIVER: 18.1 g
  A/G: 1.4
  ALP: 757.4 IU/L
  ALT: 32 IU/L
  AST: 65.4 IU/L
  BUN: 19.4 mg/dL
  CRE: 0.6 mg/dL
  Ca: 10.7 mg/dL
  Cl: 107.2 meq/L
  DBIL: 0.004 mg/dL
  GLC: 180 mg/dL
  IP: 8.4 mg/dL
  K: 4.2 meq/L
  LDH: 151.2 IU/L
  Na: 141.4 meq/L
  PL: 156 mg/dL
  RALB: 3.9 g/dL
  TBIL: 0.4 mg/dL
  TC: 91.4 mg/dL
  TG: 60.4 mg/dL
  TP: 6.5 g/dL
  gamma-GTP: 1.4 IU/L
[…], time 28 day
  TERMINAL_BW: 378.9 g
  APTT: 19.1 s
  Bas: 0%
  Eos: 0.4%
  Fbg: 226.8 mg/dL
  Hb: 15.3 g/dL
  Ht: 46.1%
  Lym: 87.8%
  MCH: 19.8 pg
  MCHC: 33.2%
  MCV: 59.4 fL
  Mono: 2.2%
  Neu: 9.6%
  PT: 12.4 s
  Plat: 105.1 x10_4/uL
  RBC: 775.6 x10_4/ul
  Ret: 3%
  WBC: 170.6 x10_2/uL
  KIDNEY_L: 1.4 g
  KIDNEY_R: 1.4 g
  KIDNEY_TOTAL: 2.8 g
  LIVER: 20.8 g
  A/G: 1.4
  ALP: 536 IU/L
  ALT: 34.6 IU/L
  AST: 64.6 IU/L
  BUN: 21.2 mg/dL
  CRE: 0.4 mg/dL
  Ca: 10.7 mg/dL
  Cl: 106.2 meq/L
  DBIL: 0.014 mg/dL
  GLC: 180 mg/dL
  IP: 7.7 mg/dL
  K: 4.9 meq/L
  LDH: 138.8 IU/L
  Na: 141.6 meq/L
  PL: 144.8 mg/dL
  RALB: 4 g/dL
  TBIL: 0.4 mg/dL
  TC: 79.6 mg/dL
  TG: 76.2 mg/dL
  TP: 6.8 g/dL
  gamma-GTP: 2 IU/L
